From patent publication US20250092353A1, “COMMENSAL FUNGUS AND USES THEREOF” (YEDA RESEARCH AND DEVELOPMENT CO. LTD., priority 2022, published 2025)

Key:
[1] = system: C. albicans SC5314 (ENO1-GFP); test: In vivo competition with C. albicans in Abx-treated SPF mice (co-inoculation, cohousing)
Source text: FIGS. 3A-3M include fluorescent micrographs, graphs, and a scheme, showing K. weizmannii competition with C. albicans in colonized animals. (3A) A representative picture of a far-red fluorescent reporter Kazachstania strain (K. weizmannii ENO1-Mirf). (3B-C) Recoverable fecal K. weizmannii in colonized wild-type animals (without antibiotics) one and six months after single oral K. weizmannii ENO1-Mirf inoculation. (3D) Flow cytometric analysis of C. albicans SC5314 (ENO1-GFP), K. weizmannii (ENO1-Mirf), and mixed cultures used for oral inoculation (3E). […] Quantification (n=3-5 mice per group, 4 independent experiments) (see (3D). (3H) Schematic non-limiting outline of a co-housing experiment. (3I) Representative flow cytometric feces analysis of colonized mice 4 weeks after initial colonization (before cohousing) and 2 weeks after co-housing. (N=4 per group). (3J) Percentages of respective labelled fungi in feces of C. albicans, K. weizmannii colonized animals, before and after co-housing in Abx presence (except for day 48 and 58); antibiotics withdrawal on day 46 of cohousing, n=4 per group, representative of 2 independent experiments. (3K) Flow cytometric analysis of feces of germfree animals 1 week after oral inoculation of single fungi cultures or mixed C. albicans SC5314 (ENO1-GFP)/K. weizmannii (ENO1-Mirf) culture. […]

[2] = system: neutrophils, classical and non-classical monocytes; test: Flow cytometric analysis of myeloid blood cell compartment of colonized mice; assay type: in vivo; conditions: Abx-treated mice, 4 weeks colonized
Source text: FIGS. 4A-4F include graphs showing humoral and cellular immune responses to C. albicans and Kazachstania sp. (4A) Flow cytometric analysis of myeloid blood cell compartment of mice 4 weeks colonized with C. albicans or K. weizmannii. Neutrophils, classical and non-classical monocytes are defined as Ly6G+CD 115−, Ly6C+CD 115+, and […], respectively. N=8-21 mice, pooled from 3 independent experiments. Gating strategy, left, results, right. (4B) Flow cytometric analysis of humoral anti-fungal reactivity. Gating strategy for the determination of serum immunoglobulin binding to cultured C. albicans or K. weizmannii. (4C) Anti-C. albicans and K. weizmannii IgA and IgG serum reactivity of single-colonized animals, measured as shown in (4B). Note that most but not all animals harbor cross-reactive sera. (4D) Representative gating strategy of RORγt+ T cells (left); percentage of RORγt+ cells among TCRβ CD4+ T cells 5 weeks upon C. albicans or K. weizmannii colonization, n=3-5 mice per group, 3 independent experiments (right). […] EC damage was assessed using the LDH assay as described in (Allert et al., 2018). […]
Methods adhered to published guidelines (Cossarizza et al., 2019). Flow cytometry samples were recorded on BD LSR Fortessa 4 lasers or Cytek Aurora followed by data analysis using the FlowJo software (Treestar).

[3] = Fungal-mediated pathology in cortisone 21-acetate immunosuppressed colonized mice; assay type: in vivo; conditions: cortisone 21-acetate 225 mg/kg s.c. every other day
Description: Stably fungal-colonized mice were 5×s.c injected with 225 mg kg-1 with cortisone 21-acetate, following the scheme of injection every other day as described previously (Solis and Filler, 2012). Mice were monitored for weight loss. Following sacrifice, organs and feces were collected for histological examination, flow cytometry and fungal cultivations). If the weight dropped […], mice were sacrificed according to IACUC protocol.
Mice were euthanized and intestines, kidneys and tongue were excised and fixed overnight in 4% paraformaldehyde at 4° C. Paraffin embedding and sectioning was performed by the institutional histology unit. For immunohistochemistry of gut samples, slides were deparaffinized by 2 washes of Xylene followed by 100%, 96%, 70% EtOH and three washes with PBS. Slides were incubated for 30 minutes in 1% hydrogen peroxide in PBS at room temperature in the dark. After washing three times in PBS, slides were boiled for 10 minutes in Citric acid buffer pH 6.0 (10 mM citric acid and 0.05% Tween-20 in DDW), then washed with PBS three times. […] For histopathology of typical tongue or kidney fungal lesions in the mouse model of immunosuppression, paraffin sections were stained with periodic acid-Schiff (PAS) or H&E and slides were captured using a Panoramic SCAN II (3DHISTECH) and analyzed using CaseViewer software (3DHISTECH).

Substance: Kazachstania weizmannii [K. weizmannii]
- C. albicans colonization after co-inoculation ([1]; Abx-treated mice, 1:1 mixture of K. weizmannii and C. albicans): Candida colonization was prevented
- displacement of established commensal C. albicans ([1]; mice stably colonized with C. albicans (on Abx) cohoused with K. weizmannii-harboring mice): progressive rapid ousting of C. albicans
- abundance of blood granulocytes and monocytes [2]: no significantly altered abundance of granulocytes, classical or non-classical monocytes
- weight loss and fungal spread [3]: neither weight loss nor evidence of fungal spread
